Experimental data: US20140107051A1, “ISOFLAVONES FOR TREATING MUCOPOLYSACCHARIDOSES” (INSTYTUT FARMACEUTYCZNY, priority 2005, published 2014)
“Also recorded” adds a separate entry of the source.

How the values were obtained:
[1] = system: fibroblasts cells derived from patients affected with different MPSs; experiment: GAG level / deposits in cultured fibroblasts of MPS patients; type: cell-based, human
[2] = system: cultured human skin fibroblasts derived from normal individuals; experiment: 35S-sulphate incorporation test of glycosaminoglycans synthesis, normal cells; type: cell-based
Experimental: (§1) The activity of isoflavones was evaluated by the measure of glycosaminoglycans synthesis in 35S-sulphate incorporation test comprising incubation of the radiolabelled 35S-sulfate into GAGs in cultured human skin fibroblasts derived from normal individuals (control) and patients affected with mucopolysaccharidose (Murata et al., Arch Biochem Biophys 2003; 413: 229-235).
(§2) The negative control was DMSO (diluent for genistein and all derivatives), the positive control—genistein. […] Experiment with each cell line has been repeated twice, and every measurement has been done twice.

fibroblasts = experiment: Electron microscope observation of GAG deposits in fibroblasts; type: cell-based, human; conditions: fibroblasts cultured one week; genistein 10 micromolar
[3] = Proliferation 144 h (Table 4); type: cell-based; conditions: read-out: Proliferation 144 h IC50
[4] = rat; intravenously administered; cited from earlier work
[5] = system: fibroblasts of patients affected with MPS I; experiment: 35S-sulphate incorporation test of glycosaminoglycans synthesis, MPS I cells; type: cell-based, human
Experimental: as §1, §2

[6] = system: cultured human skin fibroblasts derived from patients affected with mucopolysaccharidose; experiment: 35S-sulphate incorporation test of glycosaminoglycans synthesis, different human cell lines / MPS types; type: cell-based
Experimental: as §1, §2

O=c1c(-c2ccc(O)cc2)coc2cc(O)cc(O)c12 [Genistein, 4′,5,7-trihydroxy-3-phenylchromen-4-on, reference compound]
level of glycosaminoglycans in cells (in words) ([1]; cells of MPS I, MPS II, MPS IIIA and MPS IIIB patients, six days): significantly decreased, reaching after six days a level almost identical with the normal one | genistein concentrations at which decrease of GAG synthesis and reduction of deposits is observed ([1]; cultured fibroblasts): 10 to 20 µmol/L | removal of GAG deposits accumulated in cells (in words) ([1]; few days of cultivation, genistein 10 micromoles/l, FIG. 4): deposits are gradually removed; also recorded: comparable with the activity of recombinant human α-L-iduronidase (Aldurazyme) | Inhibition in relation to genistein, first symbol (normal cells) ([2]; 30 μM): 0 | activity at 30 µM ([2]; Homo sapiens, Skin fibroblast, 30 μM, DMSO control = 1, read-out: Relative GAG synthesis (converted to 1 cell), Normal cells): 25% | level of glycosaminoglycans synthesis (in words) ([2]; fibroblasts from normal individuals, FIG. 1): significant decreasing | deposits seen by electron microscope (in words) (fibroblasts): disappearance of deposits; also recorded: decline of the before accumulated glycosaminoglycans | IC50 [3]: 16.9 µM | effectiveness of crossing the blood-brain barrier [4]: about 10% | activity at 30 µM ([5]; Homo sapiens, Fibroblast, 30 μM, DMSO control = 1, read-out: Relative GAG synthesis (converted to 1 cell), MPS I): 51% | level of glycosaminoglycans synthesis (in words) ([5]; fibroblasts from MPS 1 patients, FIG. 1): significant decreasing | glycosaminoglycans synthesis (in words) ([6]; cells from individuals with other types of MPS, FIG. 2, FIG. 3): significantly reduced | glycosaminoglycans synthesis (in words) ([6]; cultured fibroblasts from MPS patients, 10-30 micromoles/l): significant inhibition of glycosaminoglycans synthesis
